Measurements reported in patent US20090105206A1, “Copper Melphalan And Copper Tegafur As Anti-Tumor Agents” (priority 2004, published 2009).

System: murine renal cell carcinoma (RENCA) tumor cells applied orthotopically
Assay: Example 3: murine renal cell carcinoma model (RENCA), substance Day 10-18
Type: in vivo, Balb/c mouse
Details: 5 and 7.5 mg/kg per day i.p., Day 10-18, findings Day 19
Method: Using a murine renal cell carcinoma model (RENCA) of the Balb/c mouse a test of the effectiveness of mel-Cu-mel was carried out on the primary tumor, the metastases and the vessel density. For this the tumor cells were applied orthotopically into the left-hand peri-renal capsule of syngenic mice, the administered dose per day of treatment being: 5 mg/kg mouse and 7.5 mg/kg mouse, 5 animals per dose plus 5 animals for solvent control. The anti-tumor agent according to the invention Cu(mel)2 was applied intraperitonial. The treatment model was as follows:
As a control 5 animals were used to which no active ingredient was administered and for comparison a group of 5 animals were administered melphalan alone.

N[C@@H](Cc1ccc(N(CCCl)CCCl)cc1)C(=O)[O-].N[C@@H](Cc1ccc(N(CCCl)CCCl)cc1)C(=O)[O-].O.O.[Cu+2] [Cu(melphalan)2]
kidney weight and kidney volume compared with the control (FIG. 5): significantly lower kidney weight and kidney volume
lung weight compared with the control and with melphalan alone (FIG. 6): reduced
